Earlier results as cited in EP0974361A1, “METHOD OF USING ANTACID AGENT AND PHARMACEUTICAL PREPARATION CONTAINING ANTACID AGENT” (CHUGAI SEIYAKU KABUSHIKI KAISHA, priority 1996, dated 1997).
Like-named read-outs stand apart in the source and are kept apart here. Blank lines part the entries; values can stand above or below the compound they belong to.

SMILES: CC(=O)N1CCN(c2ccc(OCC3COC(Cn4ccnc4)(c4ccc(Cl)cc4Cl)O3)cc2)CC1 (centres unmarked) [ketoconazole]
- bioavailability dropped by (used along with sucralfate (Goss et al.; Maconochie et al.)): 21%

SMILES: CN/C(=N/CCSCc1nc[nH]c1C)NC#N [cimetidine]
- AUC (simultaneous administration of sucralfate (Yoshida et al.)): drop

SMILES: CC(C)Cc1ccc(C(C)C(=O)O)cc1 (centres unmarked) [ibuprofen]
- absorption (used along with sucralfate (Anaya et al.)): reduced and retarded

Further lines, results first:

- drop in adsorption (used along with sucralfate (Giesing et al.)): 19%
SMILES: C[C@H]1O[C@@H](O[C@H]2[C@@H](O)C[C@H](O[C@H]3[C@@H](O)C[C@H](O[C@H]4CC[C@@]5(C)[C@H](CC[C@@H]6[C@@H]5C[C@@H](O)[C@]5(C)[C@@H](C7=CC(=O)OC7)CC[C@]65O)C4)O[C@@H]3C)O[C@@H]2C)C[C@H](O)[C@@H]1O [digoxin]

- bioavailability dropped by (in vivo): 29%
SMILES: CNC(=C[N+](=O)[O-])NCCSCc1ccc(CN(C)C)o1 [ranitidine]
